Consider 26 compounds from article PMC3542538 (Journal of medicinal chemistry, 2012).

Entries after “also recorded” stand apart in the source; their conditions may differ. Where a name gives a salt, the structure may show the parent alone.

One test concerns the target recombinant Tdp1 (Homo sapiens, UniProt Q9NUW8). The test is classed as biochemical.
Test [1] relates to all human cancer cell lines successfully tested. Put plainly: cells. Particulars: read-out: MGM (mean graph midpoint GI50).
The target of the next test is T1, recombinant human Top1 (Homo sapiens, UniProt P11387).
T1 sequence (P11387 1-765): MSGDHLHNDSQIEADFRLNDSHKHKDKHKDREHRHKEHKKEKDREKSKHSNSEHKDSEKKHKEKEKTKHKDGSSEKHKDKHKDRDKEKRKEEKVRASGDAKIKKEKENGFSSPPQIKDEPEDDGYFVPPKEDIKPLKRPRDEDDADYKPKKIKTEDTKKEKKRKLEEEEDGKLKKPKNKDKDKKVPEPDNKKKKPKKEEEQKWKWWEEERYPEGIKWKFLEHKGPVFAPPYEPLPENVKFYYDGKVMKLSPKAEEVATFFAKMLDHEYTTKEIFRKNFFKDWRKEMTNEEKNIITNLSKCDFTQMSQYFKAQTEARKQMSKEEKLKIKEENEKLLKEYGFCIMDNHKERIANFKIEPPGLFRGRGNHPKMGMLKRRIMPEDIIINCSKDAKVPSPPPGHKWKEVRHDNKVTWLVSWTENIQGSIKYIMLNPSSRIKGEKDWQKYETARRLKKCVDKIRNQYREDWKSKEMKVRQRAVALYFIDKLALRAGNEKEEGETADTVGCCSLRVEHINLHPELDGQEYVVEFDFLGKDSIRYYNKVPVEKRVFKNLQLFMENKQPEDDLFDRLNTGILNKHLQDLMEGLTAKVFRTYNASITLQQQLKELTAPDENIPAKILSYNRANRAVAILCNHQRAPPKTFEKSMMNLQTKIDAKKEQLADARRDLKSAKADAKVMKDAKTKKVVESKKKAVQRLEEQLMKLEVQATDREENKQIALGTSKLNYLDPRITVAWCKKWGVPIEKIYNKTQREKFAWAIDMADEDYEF
The experiment in a line: Topoisomerase I-mediated DNA cleavage reactions. The test is classed as biochemical. Particulars: 100 μM.

In test [2] the test system is single-stranded DNA substrate. Put plainly: Surface plasmon resonance binding to single-stranded DNA substrate. Particulars: SPR. (In SPR one partner is held on a chip, and binding of the other changes the refractive index at the surface.)

By GI50 is commonly meant the concentration giving 50% growth inhibition.

recombinant Tdp1, sequence (Q9NUW8 whole entry): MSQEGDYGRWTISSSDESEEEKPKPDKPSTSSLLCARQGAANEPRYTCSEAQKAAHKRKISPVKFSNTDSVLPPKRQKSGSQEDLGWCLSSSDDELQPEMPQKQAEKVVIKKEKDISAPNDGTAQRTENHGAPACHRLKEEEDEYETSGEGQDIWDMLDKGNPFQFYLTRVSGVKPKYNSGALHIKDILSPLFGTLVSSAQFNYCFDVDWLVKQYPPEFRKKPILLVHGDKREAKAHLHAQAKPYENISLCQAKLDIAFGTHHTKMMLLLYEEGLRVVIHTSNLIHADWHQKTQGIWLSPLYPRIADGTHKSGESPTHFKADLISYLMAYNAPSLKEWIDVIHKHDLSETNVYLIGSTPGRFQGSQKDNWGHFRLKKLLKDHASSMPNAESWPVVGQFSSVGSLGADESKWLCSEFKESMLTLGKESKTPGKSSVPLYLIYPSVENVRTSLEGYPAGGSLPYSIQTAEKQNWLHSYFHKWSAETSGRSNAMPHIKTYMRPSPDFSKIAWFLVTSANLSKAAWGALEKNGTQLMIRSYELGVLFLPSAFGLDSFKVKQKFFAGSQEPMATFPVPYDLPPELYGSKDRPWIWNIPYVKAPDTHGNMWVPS

Regarding `COc1ccc2c(c1)-c1c(c3ccc([N+](=O)[O-])cc3c(=O)n1CCCN=[N+]=[N-])C2=O` [Compound 50, 6-(3-Azidopropyl)-5,6-dihydro-8-methoxy-3-nitro-5,11-dioxo-11H-indeno[1,2-c]isoquinoline], on recombinant Tdp1, the “Tdp1 inhibitory activity (in words)” value is “very weak or inactive”.

Consider `COC(=O)CC(=O)Nc1ccc2c3c(n(CCCN)c(=O)c2c1)-c1ccccc1C3=O` [Compound 23, Methyl 3-[(6-(3-Aminopropyl)-5,11-dioxo-6,11-dihydro-5H-indeno[1,2-c]isoquinolin-3-yl)amino]-3-oxopropanoate], for which, in test [1], the GI50 worked out at 1860 nM. The same measure, in the same setting: then `COC(=O)C(=O)Nc1ccc2c3c(n(CCCN)c(=O)c2c1)-c1ccccc1C3=O` [Compound 22, Methyl 2-[(6-(3-Aminopropyl)-5,11-dioxo-6,11-dihydro-5H-indeno[1,2-c]isoquinolin-3-yl)amino]-2-oxoacetate], with 1860 ± 380 nM. Turning to `Cn1c2c(c3ccc(NC(=O)CC(=O)O)cc3c1=O)C(=O)c1ccccc1-2` [Compound 15, 3-[(6-Methyl-5,11-dioxo-6,11-dihydro-5H-indeno[1,2-c]isoquinolin-3-yl)amino]-3-oxopropanoic Acid], the “Tdp1 inhibitory activity (in words)” value on recombinant Tdp1 was “inactive”. On to `COc1ccc2c(c1)-c1c(c3ccc([N+](=O)[O-])cc3c(=O)n1CCCBr)C2=O` [Compound 49, 6-(3-Bromopropyl)-5,6-dihydro-8-methoxy-3-nitro-5,11-dioxo-11H-indeno[1,2-c]isoquinoline], for which the “Tdp1 inhibitory activity (in words)” value on recombinant Tdp1 is “very weak or inactive”. Take `NCCCn1c2c(c3ccc(N)cc3c1=O)C(=O)c1ccccc1-2` [Compound 62]: the GI50 in test [1] came out at 160 nM. For `CCOC(=O)CNc1ccc2c3c(n(C)c(=O)c2c1)-c1ccccc1C3=O` [Compound 38, Ethyl 2-[(6-Methyl-5,11-dioxo-6,11-dihydro-5H-indeno[1,2-c]isoquinolin-3-yl)amino]acetate], at recombinant Tdp1, the “Tdp1 inhibitory activity (in words)” value was “inactivity; also recorded: inactive”.

As for `O=C1c2ccccc2-c2c1c1ccc([N+](=O)[O-])cc1c(=O)n2CCCO` [Compound 63], in test [1], the GI50 stood at 890 ± 220 nM. In the case of `COc1ccc2c(c1)C(=O)c1c-2n(CCCN)c(=O)c2cc([N+](=O)[O-])ccc12` [Compound 54], in test [1], the GI50 turned out to be 20 ± 0.8 nM.

In the case of `COc1ccc2c(c1)-c1c(c3ccc([N+](=O)[O-])cc3c(=O)n1CCCn1ccnc1)C2=O` [Compound 52, 6-(3-(1H-Imidazol-1-yl)propyl)-8-methoxy-3-nitro-5H-indeno[1,2-c]isoquinoline-5,11(6H)-dione], at recombinant human Top1, the “suppression of Top1-mediated DNA cleavage at high drug concentration” value is reported as “slight suppression; also recorded: does not”. For the same compound, in test [1], the GI50 is 20 ± 0.6 nM. For the same compound, at recombinant Tdp1, the “Tdp1 inhibitory activity (in words)” value is “very weak or inactive”.

For the compound `COc1ccc2c(c1)-c1c(c3ccc([N+](=O)[O-])cc3c(=O)n1CCCN1CCOCC1)C2=O` [Compound 53, 8-Methoxy-6-(3-morpholinopropyl)-3-nitro-5H-indeno[1,2-c]isoquinoline-5,11(6H)-dione], the “Tdp1 inhibitory activity (in words)” value at recombinant Tdp1 was “very weak or inactive”. Same read-out and setting: then `CC(C)(C)OC(=O)NCCCn1c2c(c3ccc(NC(=O)CCCC(=O)O)cc3c1=O)C(=O)c1ccccc1-2` [Compound 30, 5-[(6-(3-((tert-Butoxycarbonyl)amino)propyl)-5,11-dioxo-6,11-dihydro-5H-indeno[1,2-c]isoquinolin-3-yl)amino]-5-oxopentanoic Acid], with “inactive”; and `COC(=O)C(=O)Nc1ccc2c3c(n(C)c(=O)c2c1)-c1ccccc1C3=O` [Compound 9, Methyl 2-[(6-Methyl-5,11-dioxo-6,11-dihydro-5H-indeno[1,2-c]isoquinolin-3-yl)amino]-2-oxoacetate], with “inactive”. Turning to `Cn1c2c(c3ccc(NC(=O)C(=O)O)cc3c1=O)C(=O)c1ccccc1-2` [Compound 14], in test [2], the “binding to the single-stranded DNA substrate” value was “did not bind”. As for `CCOC(=O)CNc1ccc2c3c(n(CCCN)c(=O)c2c1)-c1ccccc1C3=O.Cl` [Compound 40, Ethyl 2-[(6-(3-Aminopropyl)-5,11-dioxo-6,11-dihydro-5H-indeno[1,2-c]isoquinolin-3-yl)amino]acetate Hydrochloride], the “Tdp1 inhibitory activity (in words)” value on recombinant Tdp1 was “active”. For the compound `COC(=O)CCCC(=O)Nc1ccc2c3c(n(CCCN)c(=O)c2c1)-c1ccccc1C3=O` [Compound 25, Methyl 5-[(6-(3-Aminopropyl)-5,11-dioxo-6,11-dihydro-5H-indeno[1,2-c]isoquinolin-3-yl)amino]-5-oxopentanoate], the 50% growth inhibitory concentration (GI50) in test [1] came to 1090 nM.

For `CC(C)(C)OC(=O)NCCCn1c2c(c3ccc(NC(=O)CCCCC(=O)O)cc3c1=O)C(=O)c1ccccc1-2` [Compound 31, 6-[(6-(3-((tert-Butoxycarbonyl)amino)propyl)-5,11-dioxo-6,11-dihydro-5H-indeno[1,2-c]isoquinolin-3-yl)amino]-6-oxohexanoic Acid], the “Tdp1 inhibitory activity (in words)” value on recombinant Tdp1 is “weakly active”.

Consider `COc1ccc2c(c1)C(=O)c1c-2n(CCCN)c(=O)c2cc(I)ccc12` [Compound 84, 6-(3-Aminopropyl)-5,6-dihydro-9-methoxy-3-iodo-5,11-dioxo-11H-indeno[1,2-c]isoquinoline], for which the GI50 in test [1] was found to be 250 ± 4 nM. As for `COc1ccc2c(c1)C(=O)c1c-2n(CCCN(C)C)c(=O)c2cc(I)ccc12` [Compound 85, 3-Iodo-9-methoxy-6-(3-(Dimethylamino)propyl)-5H-indeno[1,2-c]isoquinoline-5,11(6H)-dione], the “suppression of Top1-mediated DNA cleavage at high drug concentration” value at recombinant human Top1 is reported as “complete suppression; also recorded: suppress”. As for `CC(C)(C)OC(=O)NCCCn1c2c(c3ccc(NCC(=O)O)cc3c1=O)C(=O)c1ccccc1-2` [Compound 42, 2-((6-(3-((tert-Butoxycarbonyl)amino)propyl)-5,11-dioxo-6,11-dihydro-5H-indeno[1,2-c]isoquinolin-3-yl)amino)acetic Acid], at recombinant Tdp1, the “Tdp1 inhibitory activity (in words)” value is “inactivity”. For `COc1ccc2c(c1)C(=O)c1c-2n(CCCN)c(=O)c2cc(N)ccc12` [Compound 89, 3-Amino-6-(3-aminopropyl)-5,6-dihydro-9-methoxy-5,11-dioxo-11H-indeno[1,2-c]isoquinoline Dihydrochloride], in test [1], the GI50 came out at 40 nM. In the case of `COc1ccc2c(c1)-c1c(c3ccc([N+](=O)[O-])cc3c(=O)n1CCCN)C2=O` [Compound 51, 6-(3-Aminopropyl)-5,6-dihydro-8-methoxy-3-nitro-5,11-dioxo-11H-indeno[1,2-c]isoquinoline Hydrochloride], the GI50 in test [1] was 170 ± 17 nM. As to `CC(C)(C)OC(=O)NCCCn1c2c(c3ccc(NC(=O)CCC(=O)O)cc3c1=O)C(=O)c1ccccc1-2` [Compound 29, 4-[(6-(3-((tert-Butoxycarbonyl)amino)propyl)-5,11-dioxo-6,11-dihydro-5H-indeno[1,2-c]isoquinolin-3-yl)amino]-4-oxobutanoic Acid], at recombinant Tdp1, the “Tdp1 inhibitory activity (in words)” value was “weakly active”. `CN(C)CCCn1c2c(c3ccc(C#N)cc3c1=O)C(=O)c1ccccc1-2` [Compound 74]: the GI50 in test [1] was 300 ± 14 nM. For `Cn1c2c(c3ccc(NCC(=O)O)cc3c1=O)C(=O)c1ccccc1-2` [Compound 41, 2-[(6-Methyl-5,11-dioxo-6,11-dihydro-5H-indeno[1,2-c]isoquinolin-3-yl)amino]acetic Acid], at recombinant Tdp1, the “Tdp1 inhibitory activity (in words)” value was “inactivity; also recorded: inactive”. For the compound `NCCCn1c2c(c3ccc(NCC(=O)O)cc3c1=O)C(=O)c1ccccc1-2` [Compound 43, 2-((6-(3-Aminopropyl)-5,11-dioxo-6,11-dihydro-5H-indeno[1,2-c]isoquinolin-3-yl)amino)acetic Acid Hydrochloride], in test [1], the GI50 amounted to 870 ± 14 nM.
